Experimental data reported in PubChem BioAssay (NCI).
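Step 1: Grow cells in 96-well plates. Step 2: Expose to compound for 48 hours at 5 concentrations. Step 3: Interpolate endpoints linearly; if unreached, use highest concentration. Definition used: TGI = concentration required for complete inhibition of growth.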

What was measured:
Experiment in all cases: NCI tumour cell line growth inhibition, 48 h
[1] = tested on: NCI-H522 lung
[2] = tested on: NCI/ADR-RES ovarian
[3] = tested on: RPMI-8226 leukemia
[4] = tested on: SNB-19 CNS
[5] = tested on: PC-3 prostate
[6] = tested on: MALME-3M melanoma
[7] = tested on: TK-10 renal
[8] = tested on: MDA-MB-435
[9] = tested on: HCT-15 colon
[10] = tested on: IGROV1 ovarian
[11] = tested on: EKVX NSCLC
[12] = tested on: SK-MEL-28 melanoma
[13] = tested on: 786-0 renal
[14] = tested on: MDA-MB-231 breast
[15] = tested on: MCF7 breast
[16] = tested on: SK-MEL-2 melanoma
[17] = tested on: HOP-92 NSCLC
[18] = tested on: UACC-62 melanoma
[19] = tested on: UO-31 renal
[20] = tested on: KM12 colon

Row | Compound | TGI [1] [µM] | TGI [2] [µM] | TGI [3] [µM] | TGI [4] [µM] | TGI [5] [µM] | TGI [6] [µM] | TGI [7] [µM] | TGI [8] [µM] | TGI [9] [µM] | TGI [10] [µM] | TGI [11] [µM] | TGI [12] [µM] | TGI [13] [µM] | TGI [14] [µM] | TGI [15] [µM] | TGI [16] [µM] | TGI [17] [µM] | TGI [18] [µM] | TGI [19] [µM] | TGI [20] [µM]
1 | [N-]=[N+]=Nc1c(Cl)c(Cl)nc2ccccc12 | > 100 | > 100 | > 100 | > 100 | > 100 | > 100 | > 100 | > 100 | > 100 | > 100 | > 100 | > 100 | > 100 | > 100 | > 100 | > 100 | > 100 | > 100 | > 100 | > 100
2 | COc1ccc(C2=C(N)c3c(Cl)cccc3C2=O)cc1 | > 100 | > 100 | > 100 | > 100 | > 100 | > 100 |  | > 100 | > 100 | > 100 | > 100 | > 100 | > 100 | > 100 | > 100 | > 100 | > 100 | > 100 |  | > 100
3 | COc1ccc2[nH]cc(C(=O)C(=O)NC34CC5CC(CC(C5)C3)C4)c2c1 | > 100 | > 100 | 19.8 | > 100 | > 100 | > 100 | > 100 | > 100 | > 90.3 | > 100 | > 100 | > 100 | 47.5 | 97.9 | > 31.6 | > 100 | > 100 | > 69.4 | > 100 | > 100
4 | CN(C)CCCSc1nc2c(c(=N)n1-c1ccccc1)c(=S)n(-c1ccccc1)c(=S)n2-c1ccccc1 | 3.42 | 7.38 | 1.84 | 8.14 | 3.14 | 3.6 | 3.09 | 3.09 | 3.32 | 3.14 | 3.58 | 3.88 | 2.66 | 3.03 | > 100 | 4.11 | 3.24 | 3.23 |  | 3.5
5 | O=C(O)c1cc2c(cc1CC(Cc1ccc3c(c1)CCCC3)C(=O)O)CCCC2 (stereo unspecified) | > 100 | > 100 | > 100 | > 100 | > 100 | > 100 | > 100 | > 100 | > 100 | > 100 | > 100 | > 100 | > 100 | > 100 | > 100 | > 100 | > 100 | > 100 | > 100 | > 100
6 | C=C1CCCC(C)(C)C1CCC1(C)CCC(C(C)C(=O)OC)OO1 (stereo unspecified) | 12.6 | > 18.4 | 25 | > 18.1 | 7.56 | > 25 | 7.72 | 7.59 | > 25 | 1.7 | 21.8 | > 25 | 0.76 | > 25 | > 25 | > 25 | 2.44 | > 15.5 | 1.91 | 2.84
7 | CCC1CCN=C(NS(=O)(=O)c2cc(C)c(Cl)cc2S)N1 (stereo unspecified) | 76.9 | > 100 | 81.5 | > 100 | > 100 | 92.9 | > 100 | 64.2 | > 100 | > 100 | > 100 | > 100 | 97.9 | > 100 | > 100 | > 100 | > 100 | 54.3 | 82.4 | 
8 | Cc1cc(C)c(O)c(CN2CCN(C(C)C)CCN(C(C)C)CC2)c1 | 68 | > 100 | > 100 | > 100 | > 100 | 31.9 | > 100 | 64.4 | > 100 | 18.1 | > 100 | 72.8 | > 100 | > 100 | > 100 | > 100 | 65.2 | > 100 | 82.9 | 46.5
9 | CC(Oc1ccccc1Cl)C(=O)NN1C(=O)CC(=O)NC1=S (stereo unspecified) | > 100 | > 100 | > 100 | > 100 | > 100 | > 100 | > 100 | > 100 | > 100 | > 100 | > 100 | > 100 | > 100 | > 100 | > 100 | > 100 | > 100 | > 100 | > 100 | > 100
10 | Cn1c(=O)c2c(nc3sc4c(n32)C(=O)c2c(O)ccc(O)c2C4=O)n(C)c1=O | 0.369 | 17.1 | 2.04 | > 91.5 | 26.7 | 3.09 | 15.2 | 15.5 | 4.72 | 25.4 | 33.8 | 21.3 | 4.37 | 5.26 | 3.41 | 17.5 | 7.93 | 8.5 | 11.6 | 11.6
11 | Nc1ccc(Oc2ccc(C3(c4ccc(Oc5ccc(N)cc5)cc4)C4CC5CC(C4)CC3C5)cc2)cc1 | > 59.7 | > 100 | 17.4 | > 100 | > 52.9 | > 64.2 | > 92.4 | 35.6 | 35.7 | > 44.5 | > 81.4 | > 77.9 | 19.1 | 37.6 | > 52.7 | > 100 | 35.9 | 49.1 | 21.4 | 17.7
12 | NC(=O)c1cccc(N=c2oc3ccc(Br)cc3cc2-c2nc3ccccc3[nH]2)c1 | 77.4 | 35.9 | 53.4 | 28.5 | 29.2 | 43 | 30.7 | 39.4 | 32.1 | 33.6 | 32.6 | > 100 | 31.4 | 25 | 31.9 | 38.5 | 36.4 | 28.5 | 20.8 | 49
